The record followed here is patent US10981875B2, “Quinolone-based compounds with anticancer activity” (Regents of the University of Minnesota, priority 2016, dated 2021).

The structures appear in SMILES notation. Where two headings read alike, the source gives them in different places.

Series [1] deals with colon (HT-29) and leukemia (K-562) cell lines. Kind of series: MTT anti-proliferative assay. The series is classed as cell-based. As to conditions: HT-29 and K-562. The protocol:
An MTT assay was performed with 277 and with the following compounds:
[drawing 68] against colon (HT-29) and leukemia (K-562) cell lines to determine their in vitro anti-proliferative activities.
In general terms: Formazan colour is commonly taken as a measure of viable cells.

In a further series the target is T1, human topoisomerase I (Homo sapiens, UniProt P11387).
T1 sequence (P11387 1-765): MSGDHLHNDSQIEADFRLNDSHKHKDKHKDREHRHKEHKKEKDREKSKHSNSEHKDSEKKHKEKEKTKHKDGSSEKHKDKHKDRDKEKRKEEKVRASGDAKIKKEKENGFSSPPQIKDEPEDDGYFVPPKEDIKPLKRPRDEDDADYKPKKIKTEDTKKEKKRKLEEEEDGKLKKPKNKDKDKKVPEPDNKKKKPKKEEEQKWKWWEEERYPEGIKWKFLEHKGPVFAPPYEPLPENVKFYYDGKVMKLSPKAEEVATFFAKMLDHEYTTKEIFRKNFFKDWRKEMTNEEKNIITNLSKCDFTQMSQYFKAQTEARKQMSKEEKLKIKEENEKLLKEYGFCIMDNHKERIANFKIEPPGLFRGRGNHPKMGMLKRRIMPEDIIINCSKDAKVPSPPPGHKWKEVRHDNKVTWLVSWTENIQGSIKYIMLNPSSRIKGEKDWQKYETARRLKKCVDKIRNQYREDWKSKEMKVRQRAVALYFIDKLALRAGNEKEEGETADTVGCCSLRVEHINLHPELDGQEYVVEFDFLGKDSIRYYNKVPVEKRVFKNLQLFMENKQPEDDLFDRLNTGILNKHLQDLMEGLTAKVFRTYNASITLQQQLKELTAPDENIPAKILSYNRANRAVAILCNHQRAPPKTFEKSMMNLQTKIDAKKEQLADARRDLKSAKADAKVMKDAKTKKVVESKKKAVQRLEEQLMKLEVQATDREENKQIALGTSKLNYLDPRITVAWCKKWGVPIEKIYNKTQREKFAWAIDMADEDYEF
Put plainly: Topoisomerase I relaxation assay (human). The series is classed as biochemical.

Series [2] deals with mammalian topoisomerase I. Kind of series: Topoisomerase I poisoning (DNA cleavage). The series is classed as biochemical. The source says:
(§1) Topoisomerase poisoning results in the accumulation of covalent topoisomerase-DNA complexes, which can be detected as the generation of nicked and/or linear DNA in DNA cleavage assays. Poisoning of human topoisomerase II generate double-strand breaks that lead to the development of therapy-related acute myeloid leukemia.

A further series can be described thus: Aqueous solubility. Format: physicochemical.
The target of series [3] is T2, human topoisomerase II (Homo sapiens, UniProt P11388). Kind of series: Topoisomerase II decatenation assay. Format: biochemical.
T2 sequence (P11388 whole entry): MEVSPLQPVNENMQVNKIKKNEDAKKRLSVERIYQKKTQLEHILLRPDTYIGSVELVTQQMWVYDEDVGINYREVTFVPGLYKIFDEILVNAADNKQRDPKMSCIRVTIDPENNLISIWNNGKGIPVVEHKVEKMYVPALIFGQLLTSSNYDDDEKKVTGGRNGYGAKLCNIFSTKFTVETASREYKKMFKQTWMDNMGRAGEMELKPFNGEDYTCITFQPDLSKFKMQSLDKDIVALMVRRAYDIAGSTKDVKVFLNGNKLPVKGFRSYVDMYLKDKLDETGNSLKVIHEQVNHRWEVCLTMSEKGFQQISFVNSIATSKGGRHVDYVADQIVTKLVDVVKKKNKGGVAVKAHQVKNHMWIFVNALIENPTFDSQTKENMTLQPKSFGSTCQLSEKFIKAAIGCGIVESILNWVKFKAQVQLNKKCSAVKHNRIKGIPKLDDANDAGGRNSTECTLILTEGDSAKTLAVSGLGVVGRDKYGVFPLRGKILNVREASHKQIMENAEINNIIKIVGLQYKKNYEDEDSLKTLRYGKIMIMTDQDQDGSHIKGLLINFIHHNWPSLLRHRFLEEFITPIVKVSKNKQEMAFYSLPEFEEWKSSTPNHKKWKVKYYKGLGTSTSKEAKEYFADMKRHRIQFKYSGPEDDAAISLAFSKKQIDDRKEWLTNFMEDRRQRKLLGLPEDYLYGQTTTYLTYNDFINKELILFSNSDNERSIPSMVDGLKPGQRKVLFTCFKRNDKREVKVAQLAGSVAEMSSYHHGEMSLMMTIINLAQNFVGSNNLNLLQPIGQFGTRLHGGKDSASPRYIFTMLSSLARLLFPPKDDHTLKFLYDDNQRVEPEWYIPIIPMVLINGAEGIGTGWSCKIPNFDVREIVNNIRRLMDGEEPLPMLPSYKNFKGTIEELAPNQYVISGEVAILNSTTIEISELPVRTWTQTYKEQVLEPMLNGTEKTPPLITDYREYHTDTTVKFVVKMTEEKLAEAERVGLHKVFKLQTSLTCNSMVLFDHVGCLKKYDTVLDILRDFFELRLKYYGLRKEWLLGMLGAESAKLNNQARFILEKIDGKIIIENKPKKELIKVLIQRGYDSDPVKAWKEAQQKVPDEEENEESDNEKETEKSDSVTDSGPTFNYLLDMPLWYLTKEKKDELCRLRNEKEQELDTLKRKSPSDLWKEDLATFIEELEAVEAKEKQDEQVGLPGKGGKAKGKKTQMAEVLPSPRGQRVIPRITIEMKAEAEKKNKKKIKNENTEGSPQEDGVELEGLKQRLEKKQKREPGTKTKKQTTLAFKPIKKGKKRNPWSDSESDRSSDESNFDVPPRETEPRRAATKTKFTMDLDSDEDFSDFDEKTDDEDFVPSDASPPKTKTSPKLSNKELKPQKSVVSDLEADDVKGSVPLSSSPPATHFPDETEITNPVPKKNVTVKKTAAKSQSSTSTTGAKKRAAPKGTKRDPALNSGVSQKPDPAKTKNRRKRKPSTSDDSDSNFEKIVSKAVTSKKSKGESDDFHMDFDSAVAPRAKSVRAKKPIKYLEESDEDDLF
The next series has as its target T3, calf topoisomerase I (Bos taurus, UniProt F1MN93).
T3 sequence (F1MN93 1-767): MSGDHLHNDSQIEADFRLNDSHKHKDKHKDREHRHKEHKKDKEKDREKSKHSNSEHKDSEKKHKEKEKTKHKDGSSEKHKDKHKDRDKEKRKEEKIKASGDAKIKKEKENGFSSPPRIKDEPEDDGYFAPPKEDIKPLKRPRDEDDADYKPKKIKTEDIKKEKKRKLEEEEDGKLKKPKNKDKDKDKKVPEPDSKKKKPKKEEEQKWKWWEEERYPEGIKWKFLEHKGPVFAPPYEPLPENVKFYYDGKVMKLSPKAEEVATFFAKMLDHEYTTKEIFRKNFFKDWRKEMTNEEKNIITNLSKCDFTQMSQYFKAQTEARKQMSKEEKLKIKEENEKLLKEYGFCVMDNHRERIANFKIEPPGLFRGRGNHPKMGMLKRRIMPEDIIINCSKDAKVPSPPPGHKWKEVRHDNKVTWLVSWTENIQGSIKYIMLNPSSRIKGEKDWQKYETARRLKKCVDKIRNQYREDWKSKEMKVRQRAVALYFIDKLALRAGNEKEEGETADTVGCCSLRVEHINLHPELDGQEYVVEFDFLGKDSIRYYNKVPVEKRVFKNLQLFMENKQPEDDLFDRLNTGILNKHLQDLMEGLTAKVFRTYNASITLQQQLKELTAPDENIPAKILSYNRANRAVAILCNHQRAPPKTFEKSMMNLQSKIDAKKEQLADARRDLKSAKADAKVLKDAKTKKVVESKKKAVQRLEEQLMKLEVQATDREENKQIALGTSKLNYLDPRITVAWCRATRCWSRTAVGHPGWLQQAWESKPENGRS
Put plainly: Topoisomerase I relaxation assay (calf). Format: biochemical. As to conditions: Table 1, calf enzyme, read-out: Topo I (c) IC50 (converted).

Series [4] relates to colon cancer (HT-29) xenograft. Put plainly: Colon cancer (HT-29) xenograft efficacy study. Format: in vivo, mice. As to conditions: 3-week treatment, FIG. 2. As to the method:
(§2) In vivo toxicity studies were performed to establish the maximum tolerated dose of 217 and 227 in mice. […] A proof of concept efficacy study was also conducted in mice with 217 and 227. Based on the in vitro susceptibility to 217 and 227, and the availability of the established xenograft models, a colon cancer (HT-29) xenograft model was used.

The nature of series [5]: In vivo toxicity study (maximum tolerated dose). As to conditions: daily intraperitoneal, up to 30 mg/kg for 3 weeks. As to the method:
as §2

The next series deals with E. coli DNA gyrase (Escherichia coli, UniProt P0AES4+P0AES6). Put plainly: DNA gyrase supercoiling assay. Conditions: Table 1. The series is classed as biochemical.
Sequence of E. coli DNA gyrase (P0AES4 whole entry, one chain of several): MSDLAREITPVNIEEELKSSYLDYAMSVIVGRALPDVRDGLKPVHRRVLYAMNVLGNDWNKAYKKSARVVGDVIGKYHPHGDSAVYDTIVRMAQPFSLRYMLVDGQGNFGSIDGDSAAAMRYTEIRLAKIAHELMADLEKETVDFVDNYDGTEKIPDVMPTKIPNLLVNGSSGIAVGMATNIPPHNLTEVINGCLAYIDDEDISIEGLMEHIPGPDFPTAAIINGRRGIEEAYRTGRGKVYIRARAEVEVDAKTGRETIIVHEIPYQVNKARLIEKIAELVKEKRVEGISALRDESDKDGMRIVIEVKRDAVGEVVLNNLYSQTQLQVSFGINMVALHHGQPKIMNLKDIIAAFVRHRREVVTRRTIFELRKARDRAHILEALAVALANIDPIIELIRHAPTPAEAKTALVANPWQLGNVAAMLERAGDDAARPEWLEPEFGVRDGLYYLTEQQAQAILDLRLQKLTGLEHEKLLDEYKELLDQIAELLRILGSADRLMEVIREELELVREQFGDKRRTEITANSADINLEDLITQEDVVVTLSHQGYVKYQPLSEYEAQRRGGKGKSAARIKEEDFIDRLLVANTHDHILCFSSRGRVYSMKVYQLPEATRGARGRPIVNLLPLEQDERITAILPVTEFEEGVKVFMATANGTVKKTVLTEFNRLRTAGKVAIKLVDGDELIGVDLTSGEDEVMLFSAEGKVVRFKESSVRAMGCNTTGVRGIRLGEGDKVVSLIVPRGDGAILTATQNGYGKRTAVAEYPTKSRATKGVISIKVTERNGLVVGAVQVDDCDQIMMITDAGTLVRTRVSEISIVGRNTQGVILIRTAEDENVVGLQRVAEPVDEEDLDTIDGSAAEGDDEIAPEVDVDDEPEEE
The subject of another series is 60 cancer cell lines. Put plainly: NCI 60 DTP Human Tumor Cell Line Screen. The series is classed as cell-based. As to conditions: for GI50: Homo sapiens, against the 60 cancer cell lines; for comparison of GI50 and LD50 values with etoposide (NCI's COMPARE program): majority of the 60 cancer cell lines; for mean growth: single dose (10 μM) screening. The source says: Both 217 and 227 were submitted to the NCI for the 60 DTP Human Tumor Cell Line Screen.

Series [6] addresses T2, human topoisomerase II. Kind of series: DNA cleavage assay (topoisomerase II poisoning). Format: biochemical. As to conditions: various concentrations; FIG. 1.
Text: as §1

Setting [7] is: Table 2, relaxation assay, read-out: Topo I IC50.
Setting [8] is: Table 1, human enzyme, relaxation assay, read-out: Topo I (h) IC50.
[9] abbreviates: read-out: IC50 human topoisomerase I in the relaxation assay.
[10] abbreviates: Table 1, decatenation assay, read-out: Topo II IC50.
[11] abbreviates: Table 2, decatenation assay, read-out: Topo II IC50.
[12] abbreviates: read-out: IC50 human topoisomerase II in the decatenation assay.

As to `NC[C@@H]1CCN(c2cc3c(cc2F)c(=O)c(C(=O)O)cn3Cc2ccc(-c3ccccc3)cc2)C1` [Compound 065], the “anti-proliferative activity, fold higher than that of 217” value in series [1] is given as 2-5 fold.

In the case of `COc1c(N2C[C@@H]3CCCN[C@@H]3C2)c(F)cc2c(=O)c(C(=O)O)cn(Cc3ccc(-c4ccccc4)cc3)c12` [Compound 205], at human topoisomerase I (setting [7]), the IC50 (commonly the midpoint of a concentration-inhibition curve) is 44.4 ± 0.8 µM.

With `COc1c(N2CCNCC2)c(F)cc2c(=O)c(C(=O)O)cn(Cc3ccc(-c4ccccc4)cc3)c12` [Compound 207], the IC50 on human topoisomerase I (setting [7]) stood at 54.2 ± 3.2 µM.

With `COc1c(N2C[C@@H]3CCCN[C@@H]3C2)c(F)cc2c(=O)c(C(=O)O)cn(Cc3ccc4ccccc4c3)c12` [Compound 213], the half-maximal inhibitory concentration (IC50) on human topoisomerase I (setting [7]) turned out to be 127.9 ± 0.8 µM.

With `NC[C@@H]1CCN(c2cc3c(cc2F)c(=O)n(N)c(=O)n3Cc2ccc3ccccc3c2)C1` [Compound 213a], the IC50 on human topoisomerase I (setting [7]) is 59 ± 2.9 µM.

`COc1c(N2CCNCC2)c(F)cc2c(=O)c(C(=O)O)cn(Cc3ccc4ccccc4c3)c12` [Compound 215]: at human topoisomerase I (setting [7]), the IC50 amounted to 132 ± 3.5 µM.

Turning to `NC[C@@H]1CCN(c2cc3c(cc2F)c(=O)n(N)c(=O)n3Cc2ccc(-c3ccccc3)cc2)C1` [Compound 215a], the IC50 at human topoisomerase I (setting [7]) turned out to be 25.9 ± 5.4 µM.

Regarding `COc1c(N2CC[C@@H](CN)C2)c(F)cc2c(=O)c(C(=O)O)cn(Cc3ccc(-c4ccccc4)cc3)c12` [Compound 217, (S)-1-([1,1′-biphenyl]-4-ylmethyl)-7-(3-(aminomethyl)pyrrolidin-1-yl)-6-fluoro-8-methoxy-4-oxo-1,4-dihydroquinoline-3-carboxylic acid], the “poisoning of mammalian topoisomerase I” value in series [2] is “did not poison mammalian topoisomerase I”. Moreover, the IC50 was 26 ± 0.5 µM at human topoisomerase I (setting [8]); 26.5 µM at human topoisomerase I (setting [9]); 128 ± 4.7 µM at human topoisomerase II [3] (setting [10]); 128 ± 4.7 µM at human topoisomerase II [3] (setting [11]); 128 µM on human topoisomerase II [3] (setting [12]); 32.2 µM at calf topoisomerase I. Also, on E. coli DNA gyrase, half-maximal inhibition (IC50) was put at 1370 ± 10.1 µM. Also, the aqueous solubility result in the series “Aqueous solubility” is listed as “limited aqueous solubility”. Moreover, the “inhibition of colon cancer proliferation in vivo” value in [4] is “inhibited the proliferation of colon cancer in vivo as well as fluorouracil (5-FU)”. For the same compound, the “effect on animal weight gain” value in series [5] is recorded as “did not have any significant effect on animal weight gain”. In addition, in series [5], the tolerability result was “well-tolerated”. Further, growth with 60 cancer cell lines was halved (GI50) at 1.9 µM. The “comparison of GI50 and LD50 values with etoposide (NCI's COMPARE program)” value in the series with 60 cancer cell lines is recorded as “significantly more effective than etoposide”. The compound further gave a mean growth in the series with 60 cancer cell lines of 40.3%. Besides, at human topoisomerase II [6], the “increase in the amounts of linear DNA” value is reported as “did not detect any significant increase (two-fold or less)”.

`COc1c(N2CC[C@@H](CN)C2)c(F)cc2c(=O)c(C(=O)O)cn(Cc3ccc4ccccc4c3)c12` [Compound 227, (S)-7-(3-(aminomethyl)pyrrolidin-1-yl)-6-fluoro-8-methoxy-1-(naphthalen-2-ylmethyl)-4-oxo-1,4-dihydroquinoline-3-carboxylic acid]: the “poisoning of mammalian topoisomerase I” value in [2] is “did not poison mammalian topoisomerase I”. In addition, the IC50 at human topoisomerase I (setting [8]) is 43.7 ± 0.6 µM; at human topoisomerase I (setting [9]) it was 43.1 µM; at human topoisomerase II [3] (setting [10]), 165 ± 20.2 µM; at human topoisomerase II [3] (setting [11]) it was 165 ± 20.2 µM; on human topoisomerase II [3] (setting [12]), 165 µM; on calf topoisomerase I, 66.6 µM. The half-maximal inhibitory concentration (IC50) against E. coli DNA gyrase was more than 200 µM. For the same compound, in “Aqueous solubility”, the aqueous solubility result is reported as “limited aqueous solubility”. Also, the “inhibition of colon cancer proliferation in vivo” value in series [4] is given as “exhibited activity but was not as effective as 217”. For the same compound, the “effect on animal weight gain” value in [5] is given as “did not have any significant effect on animal weight gain”. The tolerability entry in [5] is listed as “well-tolerated”. For the same compound, in the series with 60 cancer cell lines, the 50% growth inhibitory concentration (GI50) – broadly, the concentration giving 50% growth inhibition – is 3.1 µM. In addition, in the series with 60 cancer cell lines, the “comparison of GI50 and LD50 values with etoposide (NCI's COMPARE program)” value is recorded as “significantly more effective than etoposide”. The mean growth with 60 cancer cell lines amounted to 44.1%. Also, the “increase in the amounts of linear DNA” value at human topoisomerase II [6] is reported as “did not detect any significant increase (two-fold or less)”.
